Measured values taken from patent US8551942B2, “Lyophilized anti-fungal compositions” (Merck Sharp & Dohme Corp., priority 2007, dated 2013).

Experiment: Glass transition temperature by differential scanning calorimetry (DSC)
Format: physicochemical
Settings: trehalose lyophilized in the same manner as the composition; average of samples
Experimental: The glass transition temperatures referred to herein (e.g., Tg(s) and Tg(c)) are the transition temperatures determined using differential scanning calorimetry (DSC). DSC measures the change in heat capacity between the glassy and rubbery states and is typically indicated by a change in baseline in a DSC thermogram.
The Tg(c) of the lyophilized composition was determined using a DSC Q2000 (TA Instruments) under a stream of nitrogen gas at 50 mL/minute as the purge gas. Several samples of the lyophilized composition (each about 5 mg) were prepared in a nitrogen purged glove box, and each was loaded into an aluminum DSC pan and hermetically sealed. The pans along with an empty pan as control were run in the DSC. The pans were first equilibrated at 25° C., then modulated at ±0.5° C. every 60 seconds, and then the temperature was raised at a rate of 2.5° C. per minute to a final temperature of 140° C. The samples was determined to have a Tg(c) of 97±2° C.
Several samples of trehalose were lyophilized in the same manner as set forth above for the caspofungin diacetate composition. The glass transition temperature Tg(s) of each of the lyophilized trehalose samples was determined using the instrument and procedure employed to determine Tg(c) described in the preceding paragraph. The average Tg(s) of the samples was 118±2° C.

OC[C@H]1O[C@H](O[C@H]2O[C@H](CO)[C@@H](O)[C@H](O)[C@H]2O)[C@H](O)[C@@H](O)[C@@H]1O [trehalose]
Tg(s): 118±2 °C
